Data taken from patent US7741064B2, “Materials and methods relating to G-protein coupled receptor oligomers” (The University Court of the University of Glasgow, priority 2003, dated 2010).
Numbering of substitutions follows the chain as printed. “Also recorded” adds a separate entry of the source.

Key:
[1] = target: T1, Leu133Asp histamine H1 receptor-G11α co-expressed with α1b-adrenoceptor-Gly208Ala G11α (UniProt P18841+P35367, L133D); experiment: [Ca2+]i imaging in EF88 cells; type: cell-based; conditions: phenylephrine 10 μM, histamine 1 mM (FIG. 7A)
T1 construct: the full length c-myc-tagged α1b-adrenoceptor-G11α fusion protein; expressed in transfected cells; host or cells: EF88 mouse embryo fibroblasts (Gqα/G11α double knock-out)
Protocol: EF88 cells were grown in DMEM supplemented with 10% (v/v) heat inactivated foetal bovine serum and L-glutamine (1 mM) in a 95% air and 5% CO2 atmosphere at 37° C. A portion of the cells harvested during trypsinization were plated on to glass coverslips and after a 24 h growth period they were transfected using LipofectAMINE (Life Technologies Inc.) according to the manufacturers' instructions. After 3 h cells were washed twice with OPTIMEM 1 and then cultured in DMEM growth medium for a further 24 h. A total of 3 μg of pCDNA3 containing the relevant cDNA species were used to transfect each coverslip. Transfected EF88 cells were loaded with the Ca^2+-sensitive dye Fura-2 by incubation (15-20 min, 37° C.) under reduced light in DMEM growth medium containing the dye's membrane-permanent acetoxymethylester form (1.5 μM).

[2] = target: histamine H1 receptor-G11α co-transfected with Leu151Asp α1b-adrenoceptor (UniProt P21278+P35367); conditions: EF88 cells; 1 mM histamine; versus histamine H1 receptor-G11α alone (FIG. 12B)
[3] = target: T2, Leu151Aspα1b-adrenoceptor-G11α co-expressed with histamine H1 receptor-Gly208Ala G11α (UniProt P18841+P35367, L151D); type: cell-based; conditions: EF88 cells; phenylephrine 10 μM, histamine 1 mM (FIG. 7B)
T2 construct: the full length c-myc-tagged α1b-adrenoceptor-G11α fusion protein; expressed in transfected cells; host or cells: EF88 mouse embryo fibroblasts (Gqα/G11α double knock-out)

[4] = target: histamine H1 receptor-Gly208Ala G11α fusion protein (UniProt P21278+P35367, G208A); conditions: HEK293 membranes; 1 mM histamine (FIG. 5(2))
Protocol: (§1) [^35S]GTPγS binding experiments were initiated by the addition of membranes containing defined amounts of the fusion constructs (see Results for details) to an assay buffer (20 mM HEPES (pH 7.4), 3 mM MgCl2, 100 mM NaCl, 1 μM guanosine 5′-diphosphate, 0.2 mM ascorbic acid, 50 nCi [^35S]GTPγS) containing the indicated concentrations of receptor ligands. Non-specific binding was determined in the same conditions but in the presence of 100 μM GTPγS. Reactions were incubated for 15 min at 30° C. and were terminated by the addition of 0.5 ml of ice cold buffer, containing 20 mM HEPES (pH 7.4), 3 mM MgCl2 and 100 mM NaCl.
(§2) Finally, the immunocomplexes were washed twice with solubilization buffer, and bound [^35S]GTPγS measured by liquid-scintillation spectrometry.

[5] = target: wild type histamine H1 receptor-G11α fusion protein (Homo sapiens, UniProt P35367); conditions: HEK293 membranes; 1 mM histamine (FIG. 5(1))
Protocol: as §1, §2

[6] = target: Leu133Asp histamine H1 receptor-G11α fusion protein (Homo sapiens, UniProt P35367, L133D); conditions: HEK293 membranes; 1 mM histamine (FIG. 5(3))
Protocol: as §1, §2

[7] = target: co-expressed histamine H1 receptor-Gly208AlaG11α + Leu133Asp histamine H1 receptor-G11α (Homo sapiens, UniProt P35367, L133D); conditions: HEK293 membranes; two mutants co-expressed; 1 mM histamine (FIG. 5(4))
Protocol: as §1, §2

[8] = target: histamine H1 receptor-G11α fusion co-expressed with isolated Leu151Asp α1b-adrenoceptor (UniProt P21278+P35367); conditions: in comparison to membranes expressing the same level of only the histamine H1 receptor-G11α fusion; 1 mM histamine (FIG. 12A)
[9] = target: T3, α1b-adrenoceptor-Gly208AlaG11α fusion protein (UniProt P18841+P21278, G208A); experiment: [35S]GTPγS binding, membranes of HEK293 cells; type: biochemical; conditions: 10 μM phenylephrine (FIG. 4A(2))
T3 construct: the full length c-myc-tagged α1b-adrenoceptor-G11α fusion protein; expressed in transfected cells; host or cells: HEK293 (membranes)
Protocol: (§3) [^35S]GTPγS binding experiments were initiated by the addition of membranes containing defined amounts of the fusion constructs (see Results for details) to an assay buffer (20 mM HEPES (pH 7.4), 3 mM MgCl2, 100 mM NaCl, 1 μM guanosine 5′-diphosphate, 0.2 mM ascorbic acid, 50 nCi [^35S]GTPγS) containing the indicated concentrations of receptor ligands. Non-specific binding was determined in the same conditions but in the presence of 100 μM GTPγS. Reactions were incubated for 15 min at 30° C. and were terminated by the addition of 0.5 ml of ice cold buffer, containing 20 mM HEPES (pH 7.4), 3 mM MgCl2 and 100 mM NaCl. The samples were centrifuged at 16,000 g for 15 min at 4° C., and the resulting pellets were resuspended in solubilization buffer (100 mM Tris, 200 mM NaCl, 1 mM EDTA, 1.25% Nonidet P-40) plus 0.2% sodium dodecylsulfate. Samples were precleared with Pansorbin (Calbiochem), followed by immunoprecipitation with CQ antiserum (Mitchell et al., 1993).

[10] = target: T4, co-expressed α1b-adrenoceptor-Gly208AlaG11α + Leu151Aspα1b-adrenoceptor-G11α (Mesocricetus auratus, UniProt P18841, L151D); experiment: [35S]GTPγS binding, membranes of HEK293 cells; type: biochemical; conditions: two non-functional mutants co-expressed, 10 μM phenylephrine (FIG. 4A(4))
T4 construct: the full length c-myc-tagged α1b-adrenoceptor-G11α fusion protein; expressed in transfected cells; host or cells: HEK293 (membranes)
Protocol: as §3

[11] = target: T5, Leu151Aspα1b-adrenoceptor-G11α fusion protein (Mesocricetus auratus, UniProt P18841, L151D); experiment: [35S]GTPγS binding, membranes of HEK293 cells; type: biochemical; conditions: 10 μM phenylephrine (FIG. 4A(3))
T5 construct: the full length c-myc-tagged α1b-adrenoceptor-G11α fusion protein; expressed in transfected cells; host or cells: HEK293 (membranes)
T5 sequence (P18841 1-515 L151D): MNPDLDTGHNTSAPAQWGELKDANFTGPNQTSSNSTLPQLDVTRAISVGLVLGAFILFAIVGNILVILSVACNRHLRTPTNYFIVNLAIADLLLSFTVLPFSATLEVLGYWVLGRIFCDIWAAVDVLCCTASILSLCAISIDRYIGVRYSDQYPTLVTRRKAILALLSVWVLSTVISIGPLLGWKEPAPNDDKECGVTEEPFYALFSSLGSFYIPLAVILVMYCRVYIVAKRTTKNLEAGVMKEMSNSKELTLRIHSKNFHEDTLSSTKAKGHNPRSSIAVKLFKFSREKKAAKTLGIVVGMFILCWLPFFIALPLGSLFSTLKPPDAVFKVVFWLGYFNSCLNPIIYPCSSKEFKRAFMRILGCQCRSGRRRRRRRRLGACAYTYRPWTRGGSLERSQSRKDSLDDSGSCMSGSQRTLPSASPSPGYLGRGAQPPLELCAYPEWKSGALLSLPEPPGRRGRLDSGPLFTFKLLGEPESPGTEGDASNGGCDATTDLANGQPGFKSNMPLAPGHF
Protocol: as §3

c-myc-Nt-TM1α1b-G11α = experiment: [35S]GTPγS binding recovered in anti-c-myc immunoprecipitates, HEK293 cells; type: biochemical; conditions: 10 μM phenylephrine (FIG. 13B)
Protocol: as §3

[12] = target: T6, wild type α1b-adrenoceptor-G11α fusion protein (Mesocricetus auratus, UniProt P18841); experiment: [35S]GTPγS binding, membranes of HEK293 cells; type: biochemical; conditions: 10 μM phenylephrine (FIG. 4A)
T6 construct: the full length c-myc-tagged α1b-adrenoceptor-G11α fusion protein; expressed in transfected cells; host or cells: HEK293 (membranes)
T6 sequence (P18841 1-515): T5 sequence (P18841 1-515 L151D) with D151L
Protocol: as §3

T2 sequence (P21278 whole entry G208A, one chain of several, the tested form may be a part): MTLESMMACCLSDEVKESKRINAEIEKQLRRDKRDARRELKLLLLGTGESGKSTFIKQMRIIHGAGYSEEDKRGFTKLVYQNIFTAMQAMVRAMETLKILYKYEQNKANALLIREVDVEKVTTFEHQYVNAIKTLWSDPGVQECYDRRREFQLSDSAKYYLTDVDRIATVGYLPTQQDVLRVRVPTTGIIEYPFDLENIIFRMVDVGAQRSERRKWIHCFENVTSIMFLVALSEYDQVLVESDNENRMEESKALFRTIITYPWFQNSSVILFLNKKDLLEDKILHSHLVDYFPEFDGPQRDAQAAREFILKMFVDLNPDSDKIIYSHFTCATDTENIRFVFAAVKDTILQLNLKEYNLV
T2 sequence (P21278 whole entry, stated change not applied, one chain of several, the tested form may be a part): as the sequence (P21278 whole entry G208A, one chain of several, the tested form may be a part) above, with A208G counted along it
T2 sequence (P35367 whole entry, one chain of several, the tested form may be a part): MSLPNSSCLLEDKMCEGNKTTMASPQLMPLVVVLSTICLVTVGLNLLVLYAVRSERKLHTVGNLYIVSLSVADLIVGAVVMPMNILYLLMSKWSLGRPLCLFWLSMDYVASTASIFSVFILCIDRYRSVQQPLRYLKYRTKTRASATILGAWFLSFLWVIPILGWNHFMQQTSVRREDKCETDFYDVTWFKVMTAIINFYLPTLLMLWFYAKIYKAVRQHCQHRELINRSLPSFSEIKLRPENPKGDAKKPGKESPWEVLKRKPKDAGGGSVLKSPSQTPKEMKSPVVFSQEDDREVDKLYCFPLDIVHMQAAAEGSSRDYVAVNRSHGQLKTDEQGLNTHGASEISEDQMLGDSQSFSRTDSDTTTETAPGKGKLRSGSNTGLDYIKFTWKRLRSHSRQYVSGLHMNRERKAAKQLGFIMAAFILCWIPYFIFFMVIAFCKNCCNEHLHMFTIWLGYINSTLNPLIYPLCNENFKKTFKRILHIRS
T1 sequence (P35367 whole entry L133D, the tested form may be a part): as the sequence (P35367 whole entry, one chain of several, the tested form may be a part) above, with L133D counted along it
T1 sequence (P21278 whole entry partner, the tested form may be a part): as the sequence (P21278 whole entry G208A, one chain of several, the tested form may be a part) above, with A208G counted along it
T1 sequence (P18841 whole entry, the tested form may be a part): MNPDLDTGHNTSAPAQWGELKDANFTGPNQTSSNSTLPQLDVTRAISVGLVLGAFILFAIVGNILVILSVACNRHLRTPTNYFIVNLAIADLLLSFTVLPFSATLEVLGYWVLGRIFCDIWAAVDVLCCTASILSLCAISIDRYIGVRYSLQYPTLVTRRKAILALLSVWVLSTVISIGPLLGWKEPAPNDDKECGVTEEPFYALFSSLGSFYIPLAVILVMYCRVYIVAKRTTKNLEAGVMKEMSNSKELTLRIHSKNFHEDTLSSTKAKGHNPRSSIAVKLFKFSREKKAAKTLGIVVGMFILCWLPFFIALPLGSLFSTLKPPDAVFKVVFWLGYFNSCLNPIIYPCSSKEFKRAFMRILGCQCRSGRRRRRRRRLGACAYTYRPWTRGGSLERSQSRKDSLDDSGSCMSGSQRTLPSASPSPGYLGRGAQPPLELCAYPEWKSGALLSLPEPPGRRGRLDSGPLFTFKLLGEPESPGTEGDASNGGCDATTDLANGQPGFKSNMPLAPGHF
T1 sequence (P21278 whole entry G208A partner, the tested form may be a part): as the sequence (P21278 whole entry G208A, one chain of several, the tested form may be a part) above
Chain of wild type histamine H1 receptor-G11α fusion protein (P35367 whole entry, the tested form may be a part): as the sequence (P35367 whole entry, one chain of several, the tested form may be a part) above
T4 sequence (P18841 whole entry, stated change not applied, one chain of several, the tested form may be a part): as the sequence (P18841 whole entry, the tested form may be a part) above
T4 sequence (P21278 whole entry G208A partner, one chain of several, the tested form may be a part): as the sequence (P21278 whole entry G208A, one chain of several, the tested form may be a part) above
T4 sequence (P21278 whole entry partner, one chain of several, the tested form may be a part): as the sequence (P21278 whole entry G208A, one chain of several, the tested form may be a part) above, with A208G counted along it

histamine stimulation of intracellular [Ca2+] [2]	stimulation of [35S]GTPγS binding [4]	stimulation of [35S]GTPγS binding [5]	stimulation of [35S]GTPγS binding [6]	agonist activation of the G protein ([35S]GTPγS binding) [7]	histamine stimulation of [35S]GTPγS binding [8]	Compound	elevation of intracellular [Ca2+] [1]	elevation of intracellular [Ca2+] [3]	stimulation of [35S]GTPγS binding [9]	agonist-mediated binding of [35S]GTPγS [10]	stimulation of [35S]GTPγS binding [11]	stimulation of [35S]GTPγS binding in anti-c-myc immunoprecipitates (c-myc-Nt-TM1α1b-G11α; co-expressed with the isolated α1b-adrenoceptor)	[35S]GTPγS binding in response to agonist (c-myc-Nt-TM1α1b-G11α; construct expressed alone)	stimulation of the binding of [35S]GTPγS [12]
reduced markedly	absent	large stimulation	absent	reconstituted agonist activation	significantly reduced	NCCc1c[nH]cn1 [histamine]	little or no change	caused elevation of intracellular [Ca^2+]; also recorded: elevation of intracellular calcium	–	–	–	–	–	–
–	–	–	–	–	–	CNC[C@H](O)c1cccc(O)c1 [phenylephrine]	able to elevate intracellular [Ca^2+]; also recorded: elevation of intracellular calcium concentration	did not; also recorded: little or no change	essentially eliminated	reconstituted phenylephrine-mediated binding	unable to stimulate binding	did not result in significant stimulation	did not bind	large stimulation
